Measurements taken from US20140137274A1, “INDUCED MALIGNANT STEM CELLS” (LSIP, LLC, priority 2011, published 2014).

Tested on: cancer-related miRNAs
Assay: miRNA expression microarray (SurePrint G3 Human miRNA Microarray Rel.16.0)
Details: logarithmic (log2) value of quotient vs control
Experimental: Total RNA was prepared from each of six induced malignant stem cells, one induced non-malignant stem cell, and one induced pluripotent stem cell as mentioned above, and the prepared total RNAs were used in Agilent SurePrint G3 Human miRNA Microarray Rel.16.0 to detect abnormal expression (increased or reduced/lost expression) of non-coding RNAs such as endogenous cancer-related microRNAs in the induced malignant stem cells.
Complete Labeling Reagent and Hyb Kit in accordance with the Agilent protocol. To be specific, each sample total RNA (100 ng) was dephosphorylated with Calf Intestine Alkaline Phosphatase (CIP), and the RNA molecule on its 3′ terminal side was labeled with a cyanine 3-cytidine bisphosphate (pCp-Cy3) molecule using T4 RNA Ligase.
The RNA samples labeled in (14-2-3) were hybridized with SurePrint G3 Human miRNA Microarray Rel.16.0 using Agilent miRNA Complete Labeling Reagent and Hyb Kit. To be specific, each of the labeled RNAs was added to a hybridization buffer and allowed to hybridize on SurePrint G3 Human miRNA Microarray Rel.16.0 for 20 hours. After washing, the DNA microarray image was scanned by Agilent Microarray Scanner, and fluorescence signals from the spots were digitized by Feature Extraction Software (v.10.7.3.1).
The miRNAs were annotated using miRBase Release 18, and hybridization was performed onto a microarray chip with the probes designed for the miRNAs shown in the following table (refer to Table 31 below).
In this analysis, the normalized value of the digital data for the hybridization of a subject cell (induced malignant stem cell) sample was divided by the normalized value from the digital data for the hybridization of a control cell sample and the quotient was used as a measure of variation in expression. Probes for which the quotients deviated from 1 (i.e., log21=0) were considered to indicate a variation in expression; those showing quotients greater than 2 (log22=1) or smaller than 0.5 (log20.5=−1) were selected. For each of the comparisons shown below, the genes shown in the tyrosine kinase list and those shown in the cancer drug targets list were analyzed to make respective lists of the genes showing quotients greater than 2 (log22=1) or smaller than 0.5 (log20.5=−1), as compared with the quotient for the control (taken as 1). The analysis was performed using GeneSpring 12.1.
The Normalized column represents a variation in expression in logarithmic values.

Substance	Normalized (variation in microRNA expression, subject cell / control cell) ([gc2_1]vs [Nfb2_17])	Normalized (variation in microRNA expression, subject cell / control cell) ([gc2_5]vs [Nfb2_17])	Normalized (variation in microRNA expression, subject cell / control cell) ([gc2_10]vs +Nfb2_17])	Normalized (variation in microRNA expression, subject cell / control cell) ([cc4_c]vs [Nfb2_17])	Normalized (variation in microRNA expression, subject cell / control cell) ([gc1_6]vs [Ngc1_7])	Normalized (variation in microRNA expression, subject cell / control cell) ([Ngc1_7]vs [Nib2_17])	Normalized (variation in microRNA expression, subject cell / control cell) ([gcl_6]vs [Nfb2_17])
hsa-miR-16-5p (CGCCAATATTTACGTGCTG; chemistry not given here)	−5.228	−4.816	−4.956				
hsa-miR-125a-5p (TCACAGGTTAAAGGGTCTC; chemistry not given here)		−1.149		1.809	−1.373		
hsa-let-7d-5p (AACTATGCAACCTACTACC; chemistry not given here)					−1.545		
hsa-miR-124-3p (GGCATTCACCGCGTGC; chemistry not given here)						1.242	1.88
hsa-miR-193b-3p (AGCGGGACTTTGAGGG; chemistry not given here)			1.098				
hsa-let-7a-5p (AACTATACAACCTACTACCT; chemistry not given here)	−1.233	−1.334		5.026	−1.09	1.941	
hsa-1et-7c (AACCATACAACCTACTACC; chemistry not given here)				4.789			
hsa-miR-130a-3p (ATGCCCTTTTAACATTGCA; chemistry not given here)	−5.267	−5.014	−5.029	−4.732			
hsa-miR-96-5p (AGCAAAAATGTGCTAGTGCCAA; chemistry not given here)				1.093			
hsa-miR-I7-5p (CTACCTGCACTGTAAGC; chemistry not given here)			−3.619				
hsa-miR-20a-5p (CTACCTGCACTATAAGCAC; chemistry not given here)	−4.784	−4.951	−5.12				
hsa-miR-125b-5p (TCACAAGTTAGGGTCTC; chemistry not given here)	−1.425	−2.411		2.946	−1.393	1.982	
hsa-miR-20b-5p (CTACCTGCACTATGAGCAC; chemistry not given here)	−3.152	−3.269	−3.502	−3.293			
hsa-miR-15a-5p (CACAAACCATTATGTGCTGCT; chemistry not given here)				1.163			
hsa-miR-183-5p (AGTGAATTCTACCAGTGCCA; chemistry not given here)			−1.886	1.285			
